Measurements published in US8377935B2, “Substituted aminopropenyl piperidine or morpholine derivatives as novel inhibitors of histone deacetylase” (Janssen Pharmaceutica N.V., priority 2005, dated 2013).

Molecular target: histone deacetylase (HeLa nuclear extracts)
Experiment: In vitro assay for inhibition of histone deacetylase (HDAC Fluorescent Activity Assay, Fluor de Lys)
Assay type: biochemical
Conditions: HeLa nuclear extracts 60 μg/ml, 75 μM Fluor de Lys substrate
From the text: The in vitro assay for inhibition of histone deacetylase (see example C.1) measures the inhibition of HDAC enzymatic activity obtained with the compounds of formula (I).
The HDAC Fluorescent Activity Assay/Drug Discovery Kit of Biomol (cat.No: AK-500-0001) was used. The HDAC Fluorescent Activity Assay is based on the Fluor de Lys (Fluorogenic Histone deAcetylase Lysyl) substrate and developer combination. The Fluor de Lys substrate, comprises an acetylated lysine side chain. Deacetylation of the substrate sensitizes the substrate so that, in the second step, treatment with the Fluor de Lys developer produces a fluorophore.
HeLa nuclear extracts (supplier: Biomol) were incubated at 60 μg/ml with 75 μM of substrate. The Fluor de Lys substrate was added in a buffer containing 25 mM Tris, 137 mM. NaCl, 2.7 mM KCl and 1 mM MgCl2.6H2O at pH 7.4. After 30 min, 1 volume of the developer was added. The fluorophore was excited with 355 nm light and the emitted light (450 nm) was be detected on a fluorometric plate reader.
For each experiment, controls (containing HeLa nuclear extract and buffer), a blank incubation (containing buffer but no HeLa nuclear extract) and samples (containing compound dissolved in DMSO and further diluted in buffer and HeLa nuclear extract) were run in parallel. In first instance, compounds were tested at a concentration of 10^−5M. […] All sample were tested 4 times. In each test the blank value was substracted from both the control and the sample values. The control sample represented 100% of substrate deactylation. For each sample the fluorescence was expressed as a percentage of the mean value of the controls. […] Herein the effects of test compounds are expressed as pIC50 (the negative log value of the IC50-value) (see Table F-3).

O=C(NO)c1cnc(N2CCC(CNC(/C=C/c3ccccc3)CO)CC2)nc1 (stereo not shown) [Compound 1]
Enzyme activity pIC50: 9.0
